SMILES strings stand for the structures.

The values below come from patent publication US6506580B1, “Splice variants for human 5-HT4 serotonin receptor and their applications, in particular for screening” (Institut National de la Sante et de la Recherche Medicale …, priority 1997, dated 2003).

Parameters in all cases: The entire coding region of the cDNAs of 5-HT4(a), 5-HT4(b), 5-HT4(c) and 5-T4(d) was subcloned; expressed in transfected cells; host or cells: COS-7 cells, transient, pRC/CMV vector; cDNA amplified from human brain and ileum RNA
Test [1] has as its target T1, receptor 5-HT4(c) (Homo sapiens, UniProt Q13639). The experiment in a line: cAMP formation in transiently transfected COS-7 cells. The conditions noted are these: for decrease of the basal cAMP values: 1 μM. Type of test: cell-based. The procedure: (§1) The entire coding region of the cDNAs of 5-HT4(a), 5-HT4(b), 5-HT4(c) and 5-T4(d) was subcloned into a mammalian expression vector pRC/CMV (Invitrogen, Carlsbad, Calif.). The transfections were carried out using polyethyleneimine (PEI) as described in Boussif et al. (1995). The cells were transfected using a mixture of DNA and of PEI in a ratio of 20 μmol of PEI/mg of DNA in 0.9% NaCl. For the radioligand binding assays, the COS-7 cells were seeded into culture flasks of 1.5×10^4 mm^2 one day before the transfection, at a density of 1×10^7 cells/flask, incubated for six hours with plasmid DNA (150 μg/flask) and collected 48 hours after transfection. For the measurement of cAMP formation, the COS-7 cells were seeded onto twelve-well plates one day before transfection, at a density of 5×10^5 cells/well, incubated for six hours with plasmid DNA (4 to 8 μg/well according to the experiments) and assayed 24 hours after the transfection. The cells transfected with the receptor 5-HT4 cDNA constructs were compared with the “blank”-transfected cells, which were exposed to the unmodified pRC/CMV plasmid.
To measure intracellular cAMP accumulation, the transiently transfected COS-7 cells were incubated, 24 hours after transfection, in Dulbecco's modified Eagle medium (DMEM) containing 5 mM theophylline, 10 mM HEPES and 10 μM pargyline for 15 minutes at 37° C., in the presence of 5% CO2. […] The reaction was stopped by aspiration of the medium and addition of 500 μl of ice-cold ethanol. After one hour at room temperature, the cells were scraped, and everything was collected and freeze-dried. The pellet was resuspended in 350 μl of PBS and centrifuged for 5 min at 300 g. The cAMP was quantified in the supernatant using a radioimmunological assay (E.R.I.A. assay kit from Pasteur Diagnostics 79830). Student's t tests were carried out using the program Quick TEst.
ML10375 is capable of reducing the cAMP levels in the cells expressing the 5-HT4(c) and 5-HT4(d) isoforms in the absence of any stimulation of the receptor by 5-HT4 agonists. To test the hypothesis that ML10375 may constitute a reverse agonist for the human receptor 5-HT4, the 5-HT4(c) isoform was overexpressed in COS-7 cells in order to increase the frequency of the spontaneously active state of the receptor. The COS-7 cells were transfected with 4 to 8 μg of plasmid DNA per well in order to obtain an increase in the expression levels of the receptor 5-HT4(c). […] (FIG. 6B).
For orientation: Changes in cAMP serve as a functional read-out for many G protein-coupled receptors.

The target in test [2] is T1, receptor 5-HT4(c). The test can be described thus: [3H]GR113808 radioligand binding, membranes of transiently transfected COS-7 cells. Conditions: read-out: Ki, competition for [3H]GR113808 binding. How it is done:
as §1
(§2) Each flask of cells intended for the radioligand binding assays was washed twice with a phosphate buffer (PBS). The cells were then scraped, collected and centrifuged at 300 g for five minutes. The pellet was resuspended in 2.5 ml of ice-cold HEPES buffer (50 mM, pH 7.4) and homogenized with an Ultraturax tissue grinder. The lysate was then centrifuged at 40,000 g for 20 minutes at 4° C. The resulting pellet was resuspended in 15 volumes of HEPES buffer (50 mM, pH 7.4). The membrane preparations were maintained in ice and used within two hours for radioligand binding assays. The protein concentrations were determined by the method of Lowry et al., 1951, using bovine serum albumin as standard.
(§3) The saturation studies were performed using [^3H] GR113808 at 9 different concentrations ranging from 0.01 to 3.5 nM. The tubes were incubated at 25° C. for 30 minutes. The reaction-was stopped by rapid filtration, under vacuum, through Whatman GF/B filter paper using the Brandel 48R cell harvester. The filters were presoaked in a solution of PEI (0.1%) to reduce the binding to the filters. The filters were then washed with an ice-cold buffer (50 mM Tris-HCl, pH 7.4) and placed in 4 ml of “ready safe” scintillation cocktail (Beckman, Fullerton, Calif.) overnight. The radioactivity was measured using a Beckman LS 6500 C liquid scintillation counter. The binding data were analysed by computer-assisted nonlinear regression analysis (Graph Pad Prism Program, Graph Pad Software, Inc., San Diego, Calif.).
(§4) The experiments correspond to the competition of various compounds for [^3H]GR113808 binding to membranes of transiently transfected COS-7 cells. […] The estimations of affinity are given as Ki values in nM, and are determined from IC50 values obtained by computer-assisted nonlinear curve analysis (GraphPad, Prism Software). The Ki values are representative of at least two determinations.

For test [3], the target named is receptor 5-HT4(d) (Homo sapiens, UniProt Q13639). The test is described as above. Conditions: read-out: Ki, competition for [3H]GR113808 binding. The procedure: as §1, §2, §3, §4
Sequence of receptor 5-HT4(d) (Q13639 1-360 isoform Q13639-3): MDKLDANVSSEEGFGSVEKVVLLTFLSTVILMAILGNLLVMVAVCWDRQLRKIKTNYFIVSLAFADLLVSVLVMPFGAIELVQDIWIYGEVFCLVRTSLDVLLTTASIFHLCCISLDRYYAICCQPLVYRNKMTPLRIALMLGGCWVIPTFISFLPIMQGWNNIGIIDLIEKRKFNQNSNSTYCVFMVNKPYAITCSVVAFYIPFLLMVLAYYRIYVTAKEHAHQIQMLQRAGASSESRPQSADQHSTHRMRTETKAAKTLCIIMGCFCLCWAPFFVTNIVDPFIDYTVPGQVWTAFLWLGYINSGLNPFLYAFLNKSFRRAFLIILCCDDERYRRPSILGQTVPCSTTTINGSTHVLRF

T1 sequence (Q13639 1-380 isoform Q13639-4): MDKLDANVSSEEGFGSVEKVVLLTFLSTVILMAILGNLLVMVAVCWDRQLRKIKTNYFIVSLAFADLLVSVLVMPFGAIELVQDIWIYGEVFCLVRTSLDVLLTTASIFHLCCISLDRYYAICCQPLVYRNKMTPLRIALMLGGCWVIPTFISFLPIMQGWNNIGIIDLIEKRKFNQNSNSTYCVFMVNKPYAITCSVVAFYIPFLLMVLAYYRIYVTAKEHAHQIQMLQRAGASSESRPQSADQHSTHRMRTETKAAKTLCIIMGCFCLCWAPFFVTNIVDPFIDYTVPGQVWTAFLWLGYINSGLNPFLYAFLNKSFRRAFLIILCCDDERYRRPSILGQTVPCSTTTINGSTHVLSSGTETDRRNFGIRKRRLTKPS

`COc1cc(N)c(Cl)cc1C(=O)OCCN1C[C@H](C)C[C@H](C)C1` [ML10375, 2-(cis-3,5-dimethyl-piperidino)ethyl 4-amino-5-chloro-2-methoxybenzoate]: the “antagonism of the stimulatory effect of 5-HT (1 μM) on the basal cAMP” value in test [1] (4 μg of plasmid DNA, preincubation with 1 μM) was “antagonized”. The “effect of PTX treatment on the ML10375-induced reduction in basal cAMP” value in test [1] (6 μg of plasmid DNA, ML10375 1 μM, PTX 100 ng/ml, 16-hour preincubation) is “did not significantly modify”. For the same compound, the “decrease in the basal cAMP level in the presence of 1 μM 5-HT” value in test [1] (8 μg of plasmid DNA, preincubation with 1 μM) was 47%. In addition, in test [1] (COS-7, 1 μM, no agonist), the “reduction of the basal cAMP levels” value was 21%. The results for the “decrease of the basal cAMP values” in test [1] (COS-7 transfected with 4 μg of plasmid DNA) and in test [1] (COS-7 transfected with 8 μg of plasmid DNA) were 24% and 62%, respectively. Besides, the Ki in test [2] worked out at 0.61 ± 0.08 nM; in test [3], 0.41 ± 0.1 nM.

In general, Ki refers to the equilibrium dissociation constant of an inhibitor or competing ligand from its target.
